≈ marks a conversion by molar mass, not a printed value. Read-outs that look alike come from different tables or passages of the source.
What was measured:
M. simiae = experiment: MIC (CLSI broth dilution), slow-growing NTM isolates; assay type: cell-based
M. abscessus = settings: strains of M. abscessus; Wallace et al.; cited from earlier work
M. arupense = experiment: MIC (CLSI broth dilution), slow-growing NTM isolates; assay type: cell-based; settings: isolate 11, Other
[1] = test system: slow-growing NTM isolates; experiment: MIC (CLSI broth dilution), all slow-growing NTM isolates; assay type: cell-based, nontuberculous mycobacteria
[2] = test system: M. abscessus subsp. abscessus CIP 104536; experiment: MIC according to CLSI guidelines; settings: Mycobacteroides abscessus, CIP104536, read-out: Minimal Inhibitory Concentration (MIC)
Experimental: Vials with M. abscessus suspensions were stored at −80° C. Cultures on solid medium were grown on Mueller Hinton II agar (BD), supplemented with 10% OADC and 0.5% glycerol for 10 days at 37° C. with 5% CO2.

[3] = Stability of antimicrobial drugs, large-plate agar diffusion assay; assay type: physicochemical; settings: within the first 24 hours
Experimental: Antimicrobial activity over time was assessed using the standard large-plate agar diffusion assay as previously described in detail (Bennett et al., Appl. Microbiol. 1966, 14 (2): 170-7). In short, a Staphylococcus aureus strain susceptible to omadacycline and a Micrococcus luteus strain susceptible to tigecycline were plated onto solid diagnostic sensitivity test (D.S.T.) agar (Oxoid, Hampshire, UK). A two-fold increasing standard concentration series was prepared.

[4] = in vivo; cited from earlier work
[5] = test system: M. abscessus subsp. abscessus CIP 104536; experiment: Time-kill kinetics assay; assay type: cell-based
Experimental: Briefly, M. abscessus cultures were exposed to antimicrobial drugs at 4-fold increasing concentrations for 7 days at 37° C. under shaking conditions at 96 rpm. […] The drug concentrations ranged from 0.063 to 256 mg/L for both compounds. […] At day 1, 3 and 7 during drug exposure, samples were collected, centrifuged at 14000 xg to avoid anti-NTM drug carry over, serially diluted (10-fold, 10^0-10^7) and subcultured onto solid medium. […] The lower limit of detection was 5 cfu/mL (log 0.7). All experiments were performed in duplicate. Time-kill curves, as well as concentration-effect curves were generated.

[6] = MIC by broth microdilution in CAMHB, clinical isolates; assay type: cell-based, Mycobacterium chelonae; settings: for MIC: read-out: MIC
[7] = Intra-pulmonary steady-state concentrations (plasma, ELF, alveolar cells) after multiple IV doses in healthy adult subjects; assay type: in vivo, human; settings: human, in vivo
Experimental: The remaining 20 subjects received tigecycline as 1 intravenous dose of 100 mg administered as a 30 minute infusion at t=0, followed by 6 intravenous doses of 50 mg administered as 30 minute infusions at t=12, 24, 36, 48, 60, and 72 hours. A study completion visit was conducted on the day following the final test article dose. There was a final follow-up assessment 7 to 14 days following the subject's last dose of test article which may be completed by telephone contact or other interactive technology unless an examination was needed to evaluate adverse events or abnormalities noted at the study completion visit.
Plasma PK samples were collected pre-dose and at 0.5, 1, 1.5, 2, 3, 4, 6, 8, 12 and 24 hours post-dose on day 4. […] One BAL sample was collected from each subject on day 4. Subjects were randomized to one of the following collection times: 0.5, 1, 2, 4, 8, 12 or 24 hours post-dose.

[8] = test system: Bacille Calmette Guerin (BCG); assay type: cell-based, Mycobacterium bovis
[9] = Alveolar Macrophages (AM) concentration (mean ± SD)
[10] = Epithelial lining fluid (ELF) concentration (mean ± SD)
[11] = Plasma concentration (mean ± SD)
[12] = Ratio of Omadacycline Concentrations in Alveolar Cells to Plasma (Mean, SD)
[13] = Ratio of Omadacycline Concentrations in Epithelial Lining Fluid to Plasma (Mean, SD)

Work on C[C@H]1c2cccc(O)c2C(=O)C2=C(O)[C@]3(O)C(=O)C(C(N)=O)=C(O)[C@@H](N(C)C)[C@@H]3[C@@H](O)[C@@H]21 [Doxycycline, doxycycline] yielded an MIC (M. simiae; isolate 13, Other) greater than 16 µg/mL, an MIC (M. simiae; isolate 14, Other) greater than 16 µg/mL and an MIC (M. simiae; isolate 15, Other) greater than 16 µg/mL. The “in vitro activity (in words)” value (M. abscessus) was “very low activity” and the MIC (M. arupense) was 16 µg/mL (≈ 36 µM).
With NCC[C@H](O)C(=O)N[C@@H]1C[C@H](N)[C@@H](O[C@H]2O[C@H](CN)[C@@H](O)[C@H](O)[C@H]2O)[C@H](O)[C@H]1O[C@H]1O[C@H](CO)[C@@H](O)[C@H](N)[C@H]1O [Amikacin, amikacin] the MIC50 ([1]; all slow-growing NTM isolates) was 16 µg/mL (≈ 27.3 µM), the MIC90 ([1]; all slow-growing NTM isolates) was 32 µg/mL (≈ 54.6 µM) and the MIC (M. simiae; isolate 13, Other) was 32 µg/mL (≈ 54.6 µM). The MIC (M. simiae; isolate 14, Other) was 16 µg/mL (≈ 27.3 µM), the MIC (M. simiae; isolate 15, Other) was 16 µg/mL (≈ 27.3 µM) and the MIC (M. arupense) was 8 µg/mL (≈ 13.7 µM).
With CN(C)c1cc(CNCC(C)(C)C)c(O)c2c1C[C@H]1C[C@H]3C(N(C)C)C(O)=C(C(N)=O)C(=O)[C@@]3(O)C(O)=C1C2=O (stereo partly drawn) [Omadacycline, (4aS,5aR,12aS)-4,7-bis(dimethylamino)-3,10,12,12a-tetrahydroxy-9-((neopentylamino)methyl)-1,11-dioxo-1,4,4a,5,5a,6,11,12a-octahydrotetracene-2-carboxamide] the MIC [2] was 4 µg/mL (≈ 7.19 µM), the “activity against SGM isolates (in words)” value ([1]; small number of SGM isolates) was “MIC values above the highest concentration evaluated” and the decline in concentration [3] was 20%. For the same molecule, the “24-hour area under the curve compared to tigecycline” value [4] was “approximately three-fold higher”, the “concentration for 1 log mycobacterial killing” value ([5]; after 7 days of exposure) was 4.0 mg/L and the “concentration for 2 log mycobacterial killing” value ([5]; after 7 days of exposure) was 4.8 mg/L. For the same molecule, the “concentration for stasis (concentration-effect curve)” value ([5]; after 7 days of exposure) was 3.3 mg/L, the concentrations achieving elimination ([5]; time-kill, at day 3-7) was “no elimination was achieved” and the “concentration showing inhibition of mycobacterial growth” value ([5]; time-kill, up to 7 days exposure) was 4 mg/L. For the same molecule, the MIC90 ([6]; 22 clinical isolates, read-out: MIC90) was 0.25 µg/mL (≈ 0.449 µM), the MIC ([6]; isolate No. 1, MC 7323) was 0.125 µg/mL (≈ 0.225 µM) and the MIC ([6]; isolate No. 2, MC 7534) was 0.03 µg/mL (≈ 0.0539 µM). It also gave an MIC ([6]; isolate No. 3, MC 7368) of 0.03 µg/mL (≈ 0.0539 µM), an MIC ([6]; isolate No. 4, MC 7514) of 0.06 µg/mL (≈ 0.108 µM) and an MIC ([6]; isolate No. 5, MC 7584) of 0.06 µg/mL (≈ 0.108 µM). It also gave an MIC ([6]; isolate No. 6, MC 7192) of 0.015 µg/mL (≈ 0.0269 µM), an MIC ([6]; isolate No. 7, MC 7466) of 0.03 µg/mL (≈ 0.0539 µM) and an MIC ([6]; isolate No. 8, MC 7533) of 0.25 µg/mL (≈ 0.449 µM). For the same molecule, the MIC ([6]; isolate No. 9, MC 7579) was 0.125 µg/mL (≈ 0.225 µM), the MIC ([6]; isolate No. 10, MC 7614) was 0.125 µg/mL (≈ 0.225 µM) and the MIC ([6]; isolate No. 11, MC 7414) was 0.125 µg/mL (≈ 0.225 µM). The MIC ([6]; isolate No. 12, MC 7313) was 0.125 µg/mL (≈ 0.225 µM), the MIC ([6]; isolate No. 13, MC 7281) was 0.25 µg/mL (≈ 0.449 µM) and the MIC ([6]; isolate No. 14, MC 7328) was 0.015 µg/mL (≈ 0.0269 µM). It also gave an MIC ([6]; isolate No. 15, MC 7294) of 0.25 µg/mL (≈ 0.449 µM), an MIC ([6]; isolate No. 16, MC 14-S-03) of 0.06 µg/mL (≈ 0.108 µM) and an MIC ([6]; isolate No. 17, MC 14-S-04) of 0.06 µg/mL (≈ 0.108 µM). It also gave an MIC ([6]; isolate No. 18, MC 14-S-05) of 0.125 µg/mL (≈ 0.225 µM), an MIC ([6]; isolate No. 19, MC 14-S-06) of 0.03 µg/mL (≈ 0.0539 µM) and an MIC ([6]; isolate No. 20, MC 14-S-07) of 0.06 µg/mL (≈ 0.108 µM). For the same molecule, the MIC ([6]; isolate No. 21, MC 35757) was 0.125 µg/mL (≈ 0.225 µM), the MIC ([6]; isolate No. 22, MC 7302) was 0.25 µg/mL (≈ 0.449 µM) and the “Free-drug AUC72-96, Plasma (Median)” value [7] was 9610 ng·h/mL. The AUC ([7]; AUCmean, Alveolar Cells (AC)) was 302000 ng·h/mL, the AUC ([7]; AUCmean, Epithelial Lining Fluid (ELF)) was 17200 ng·h/mL and the AUC ([7]; AUCmean, Plasma) was 11700 ng·h/mL. The AUC ([7]; AUCmedian, Alveolar Cells (AC)) was 292000 ng·h/mL, the AUC ([7]; AUCmedian, Epithelial Lining Fluid (ELF)) was 16700 ng·h/mL and the AUC ([7]; AUCmedian, Plasma) was 11800 ng·h/mL. The concentration at 0.5 h [7, 9] was 14300 ± 9300 ng/mL, the concentration at 1 h [7, 9] was 12800 ± 8480 ng/mL and the concentration at 2 h [7, 9] was 10800 ± 7590 ng/mL. The concentration at 4 h [7, 9] was 18000 ± 7170 ng/mL, the concentration at 8 h [7, 9] was 12300 ± 4700 ng/mL and the concentration at 12 h [7, 9] was 12300 ± 4610 ng/mL. It also gave a concentration at 24 h [7, 9] of 10400 ± 4040 ng/mL, a concentration at 0.5 h [7, 10] of 1730 ± 1010 ng/mL and a concentration at 1 h [7, 10] of 2250 ± 720 ng/mL. For the same molecule, the concentration at 2 h [7, 10] was 1510 ± 940 ng/mL, the concentration at 4 h [7, 10] was 950 ± 330 ng/mL and the concentration at 8 h [7, 10] was 580 ± 190 ng/mL. It also gave a concentration at 12 h [7, 10] of 610 ± 290 ng/mL, a concentration at 24 h [7, 10] of 410 ± 130 ng/mL and a Kp ([7]; Penetration Ratio: total-drug ELF AUC72-96 to free-drug plasma AUC72-96 (Median)) of 1.93. The Kp ([7]; Penetration ratio AC:Plasma based on AUCmean) was 25.8, the Kp ([7]; Penetration ratio AC:Plasma based on AUCmedian) was 24.8 and the Kp ([7]; Penetration ratio ELF:Plasma based on AUCmean) was 1.47. For the same molecule, the Kp ([7]; Penetration ratio ELF:Plasma based on AUCmedian) was 1.42, the concentration at 0.5 h [7, 11] was 1800 ng/mL and the concentration at 1 h [7, 11] was 890 ng/mL. It also gave a concentration at 2 h [7, 11] of 930 ng/mL, a concentration at 4 h [7, 11] of 590 ng/mL and a concentration at 8 h [7, 11] of 560 ng/mL. The concentration at 12 h [7, 11] was 420 ng/mL, the concentration at 24 h [7, 11] was 270 ng/mL and the Kp at 0.5 h [7, 12] was 8.12 ± 5.95. For the same molecule, the Kp at 1 h [7, 12] was 13.8 ± 7.38, the Kp at 2 h [7, 12] was 12.3 ± 6.57 and the Kp at 4 h [7, 12] was 34.7 ± 15.1. For the same molecule, the Kp at 8 h [7, 12] was 23.1 ± 11.2, the Kp at 12 h [7, 12] was 29 ± 8.78 and the Kp at 24 h [7, 12] was 40.3 ± 10.3. The Kp at 0.5 h [7, 13] was 0.95 ± 0.56, the Kp at 1 h [7, 13] was 2.72 ± 1.26 and the Kp at 2 h [7, 13] was 1.5 ± 0.61. It also gave a Kp at 4 h [7, 13] of 1.79 ± 0.49, a Kp at 8 h [7, 13] of 1.07 ± 0.45 and a Kp at 12 h [7, 13] of 1.44 ± 0.57. For the same molecule, the Kp at 24 h [7, 13] was 1.65 ± 0.86, the AUC ([7]; Total-drug AUC72-96, ELF (Median)) was 18500 ng·h/mL and the Kp ([7]; concentration in epithelial lining fluid relative to plasma) was greater than 1.4. It also gave a Cmax ([7]; iv, 100 mg) of 2260 ± 760 ng/mL, a Vd ([7]; iv, 100 mg) of 165 ± 58 L and a Kp ([7]; mean concentration in alveolar cells relative to plasma) of roughly 25. For the same molecule, the Kp ([7]; mean concentration in epithelial lining fluid higher than in plasma) was no less than 0.4 and the “Results/Observations (growth)” value ([8]; disk: 15 μg of omadacycline) was “Markedly decreased growth around”.
CC[C@H]1OC(=O)[C@H](C)[C@@H](O[C@H]2C[C@@](C)(OC)[C@@H](O)[C@H](C)O2)[C@H](C)[C@@H](O[C@@H]2O[C@H](C)C[C@H](N(C)C)[C@H]2O)[C@](C)(OC)C[C@@H](C)C(=O)[C@H](C)[C@@H](O)[C@]1(C)O [clarithromycin] gave a clear zone ([8]; disk: 15 μg of clarithromycin) of 45 mm clear zone.

Reference: US20250332178A1, “METHODS OF TREATING MYCOBACTERIAL INFECTIONS USING TETRACYCLINE COMPOUNDS” (priority 2018, published 2025)
